Data published in BindingDB's records for PubMed 9584223 (University of Bath, 1998).
Where “and” joins values, the source holds several entries; their conditions need not be identical. Equal entries are not always repeated.

The compounds below were run against Neuronal acetylcholine receptor subunit alpha-4 (Homo sapiens, UniProt P43681).
Chain of Neuronal acetylcholine receptor subunit alpha-4 (P43681 whole entry): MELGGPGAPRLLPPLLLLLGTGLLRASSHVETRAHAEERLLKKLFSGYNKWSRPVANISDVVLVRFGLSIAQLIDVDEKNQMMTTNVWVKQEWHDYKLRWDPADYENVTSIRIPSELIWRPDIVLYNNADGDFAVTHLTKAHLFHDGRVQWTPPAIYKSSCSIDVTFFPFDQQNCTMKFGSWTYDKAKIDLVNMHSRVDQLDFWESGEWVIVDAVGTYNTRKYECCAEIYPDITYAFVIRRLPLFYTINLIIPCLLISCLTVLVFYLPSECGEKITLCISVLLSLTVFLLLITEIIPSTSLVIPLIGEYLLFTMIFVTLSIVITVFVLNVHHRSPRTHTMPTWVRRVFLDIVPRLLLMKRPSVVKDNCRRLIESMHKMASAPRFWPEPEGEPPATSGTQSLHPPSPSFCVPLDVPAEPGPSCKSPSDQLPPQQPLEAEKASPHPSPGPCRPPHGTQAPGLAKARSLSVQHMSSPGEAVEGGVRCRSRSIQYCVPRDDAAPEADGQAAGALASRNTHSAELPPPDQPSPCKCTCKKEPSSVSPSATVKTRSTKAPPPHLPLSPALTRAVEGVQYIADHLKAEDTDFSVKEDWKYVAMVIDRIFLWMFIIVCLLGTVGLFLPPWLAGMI

Row | SMILES | Ki
1 | O=c1cccc2n1C[C@H]1CNC[C@H]2C1 [(1S,9R)-7,11-diazatricyclo[7.3.1.0~2,7~]trideca-2,4-dien-6-one] | 17 nM and 3.3 nM
2 | Cc1cc([C@@H]2CCCN2C)on1 [ABT-418] | 1.7 nM
3 | COc1cc2c3cc1Oc1cc(ccc1O)C[C@H]1c4c(cc(OC)c(O)c4Oc4ccc(cc4)C[C@@H]3N(C)CC2)CC[N+]1(C)C [CAS_57-94-3] | 1000 nM and > 10000 nM
4 | C[N+](C)(C)CCCCCC[N+](C)(C)C [Hexamethoniumdibromide] | > 10000 nM
5 | CNC1(C)C2CCC(C2)C1(C)C (stereo unspecified) [Methyl-(2,3,3-trimethyl-bicyclo[2.2.1]hept-2-yl)-amine(Mecamylamine)] | > 10000 nM
6 | CCN1C[C@]2(COC(=O)c3ccccc3-n3c(O)cc(C)c3O)CC[C@H](OC)[C@]34C5C[C@@H]6[C@@H](OC)C[C@@](O)(C5[C@H]6OC)[C@@](O)(C13)[C@@H](OC)C24 (stereo partly drawn) [[(1S,4S,5R,6S,8R,9R,13S,16S,18S)-11-ethyl-8,9-dihydroxy-4,6,16,18-tetramethoxy-11-azahexacyclo[7.7.2.1^{2,5}.0^{1,10}.0^{3,8}.0^{13,17}]nonadecan-13-yl]methyl 2-[(3S)-3-methyl-2,5-dioxopyrrolidin-1-yl]benzoate] | 6100 nM and 1600 nM
